In ChEMBL document CHEMBL1149799, “Bioactive peroxides as potential therapeutic agents” (Eur J Med Chem, 2008):
Converted amounts (≈) assume the structure as drawn.

test system: not listed separately; assay: Cytotoxicity against mouse Ehrlich Ascites carcinoma by trypan blue exclusion assay; assay type: functional; conditions: not given

Row | SMILES | IC50 [µM] | IC80 [µM]
1 | C[C@@H]1CCC2[C@@H](C)[C@H](O[C@@H]3O[C@H]4O[C@@]5(C)CC[C@@H]6[C@@H](C)CCC([C@@H]3C)[C@]46OO5)O[C@@H]3O[C@]4(C)CC[C@@H]1[C@@]23OO4 (some centres undefined) | 1.4 | 2.4
2 | CO[C@H]1O[C@@H]2O[C@@]3(C)CC[C@H]4[C@H](C)CC[C@@H]([C@H]1C)[C@@]24OO3 |  | > 125
3 | CC(=O)[C@@H]1CC[C@@H](C)[C@@H]2CC[C@]3(C)OO[C@@]12C(=O)O3 | > 175 | > 175
4 | CC(=O)[C@@H]1CC[C@@H](C)[C@@H]2CC[C@]3(C)OO[C@@]12[C@H](OC=O)O3 | 91 | 156
5 | C[C@@H]1CC[C@@H]2[C@]34OO[C@@](C)(CC[C@@H]13)O[C@H]4OC(=O)[C@@]2(C)O | > 125 | > 125

test system: HT-29; assay: Cytotoxicity against human HT29 cells; assay type: functional, cell-based; conditions: not given

Row | SMILES | Activity [µg/mL]
6 | CC(C)[C@@H](C)C1CC1[C@@H](C)[C@H]1CC[C@@H]2[C@]1(C)CC[C@H]1[C@]23C=C[C@]2(C[C@@H](O)CC[C@]12C)OO3 (some centres undefined) | 1.4

same assay, conditions: Homo sapiens, HT-29

Row | SMILES | IC50 [µg/mL]
7 | C=C(CCC[C@@]1(C)CC[C@H]([C@H](C)C(=O)OC)OO1)CCC1(O)C(=C)CCCC1(C)C (some centres undefined) [TASNEMOXIDE C] | > 1
8 | C=C(CCC1=C(C)CCCC1(C)C)C(O)CC[C@@]1(C)CC[C@H]([C@H](C)C(=O)O)OO1 (some centres undefined) [TASNEMOXIDE B] | > 1
9 | C=C(CCCC(C)(C)O)C(=O)CC[C@@]1(C)CC[C@@H]([C@H](C)C(=O)OC)OO1 [AIKUPIKOXIDE D] | > 1
10 | CC1=C(CCC(C)(O)/C=C/C[C@@]2(C)CC[C@H]([C@H](C)C(=O)O)OO2)C(C)(C)CCC1 (some centres undefined) [TASNEMOXIDE A] | > 1
11 | CC(=O)CCCC(C)(C)C(=O)CC/C(C)=C/CC[C@@]1(C)CC[C@H]([C@H](C)C(=O)O)OO1 [AIKUPIKOXIDE A] | > 1
12 | C=C1CCCC(C)(C)C1(O)CC[C@@]1(C)CC[C@@H]([C@H](C)C(=O)OC)OO1 (some centres undefined) [AIKUPIKOXIDE B] | > 1
13 | C=CCCC/C=C/C=C\CCCCCCCC[C@@H]1CC[C@@H]([C@@H]2CC[C@@H](CC(=O)[O-])OO2)O1.[Na+] | 0.1
14 | COC(=O)[C@@H](C)[C@@H]1CC[C@](C)(CCC(=O)C(C)(C)CCCC(C)=O)OO1 [DIACARPEROXIDE B] | > 1

same assay, conditions: Homo sapiens, HT-29; read-out: ED50 (the source's name)

Row | SMILES | EC50 [µg/mL]
15 | C=C(C)C(CC[C@@H](C)[C@H]1CC[C@H]2[C@@H]3CC=C4C[C@@H](O)CC[C@]4(C)[C@H]3CC[C@]12C)OO (some centres undefined) | 0.43 (≈ 1.03 µM)
16 | C[C@H](C/C=C/C(C)(C)OO)[C@H]1CC[C@H]2[C@@H]3CC=C4C[C@@H](O)CC[C@]4(C)[C@H]3CC[C@]12C | 1.27 (≈ 3.05 µM)
17 | C[C@H](C/C=C/C(C)(C)OO)[C@H]1CC[C@H]2[C@@H]3C[C@@H](O)C4=CC(=O)CC[C@]4(C)[C@H]3CC[C@]12C | 0.63 (≈ 1.46 µM)
18 | C=CC(CC[C@@H](C)[C@H]1CC[C@H]2[C@@H]3CC(=O)C4=CC(=O)CC[C@]4(C)[C@H]3CC[C@]12C)(OO)C(C)C (some centres undefined) | 1.4 (≈ 3.07 µM)

test system: A549; assay: Cytotoxicity against human A549 cells; assay type: functional, cell-based; conditions: not given

Row | SMILES | Activity [µg/mL]
19 | CC(C)[C@@H](C)C1CC1[C@@H](C)[C@H]1CC[C@@H]2[C@]1(C)CC[C@H]1[C@]23C=C[C@]2(C[C@@H](O)CC[C@]12C)OO3 (some centres undefined) | 2.7

same assay, conditions: Homo sapiens, A549

Row | SMILES | IC50 [µg/mL]
20 | C=C(CCC[C@@]1(C)CC[C@H]([C@H](C)C(=O)OC)OO1)CCC1(O)C(=C)CCCC1(C)C (some centres undefined) [TASNEMOXIDE C] | > 1
21 | C=C(CCC1=C(C)CCCC1(C)C)C(O)CC[C@@]1(C)CC[C@H]([C@H](C)C(=O)O)OO1 (some centres undefined) [TASNEMOXIDE B] | > 1
22 | C=C(CCCC(C)(C)O)C(=O)CC[C@@]1(C)CC[C@@H]([C@H](C)C(=O)OC)OO1 [AIKUPIKOXIDE D] | > 1
23 | CC1=C(CCC(C)(O)/C=C/C[C@@]2(C)CC[C@H]([C@H](C)C(=O)O)OO2)C(C)(C)CCC1 (some centres undefined) [TASNEMOXIDE A] | > 1
24 | CC(=O)CCCC(C)(C)C(=O)CC/C(C)=C/CC[C@@]1(C)CC[C@H]([C@H](C)C(=O)O)OO1 [AIKUPIKOXIDE A] | > 1
25 | C=C1CCCC(C)(C)C1(O)CC[C@@]1(C)CC[C@@H]([C@H](C)C(=O)OC)OO1 (some centres undefined) [AIKUPIKOXIDE B] | > 1
26 | C=CCCC/C=C/C=C\CCCCCCCC[C@@H]1CC[C@@H]([C@@H]2CC[C@@H](CC(=O)[O-])OO2)O1.[Na+] | 0.1
27 | COC(=O)[C@@H](C)[C@@H]1CC[C@](C)(CCC(=O)C(C)(C)CCCC(C)=O)OO1 [DIACARPEROXIDE B] | > 1

same assay, conditions: Homo sapiens, A549; read-out: ED50 (the source's name)

Row | SMILES | EC50 [µg/mL]
28 | C=C(C)C(CC[C@@H](C)[C@H]1CC[C@H]2[C@@H]3CC=C4C[C@@H](O)CC[C@]4(C)[C@H]3CC[C@]12C)OO (some centres undefined) | 0.64 (≈ 1.54 µM)
29 | C[C@H](C/C=C/C(C)(C)OO)[C@H]1CC[C@H]2[C@@H]3CC=C4C[C@@H](O)CC[C@]4(C)[C@H]3CC[C@]12C | 1.68 (≈ 4.03 µM)
30 | C[C@H](C/C=C/C(C)(C)OO)[C@H]1CC[C@H]2[C@@H]3C[C@@H](O)C4=CC(=O)CC[C@]4(C)[C@H]3CC[C@]12C | 1 (≈ 2.32 µM)
31 | C=CC(CC[C@@H](C)[C@H]1CC[C@H]2[C@@H]3CC(=O)C4=CC(=O)CC[C@]4(C)[C@H]3CC[C@]12C)(OO)C(C)C (some centres undefined) | 2.5 (≈ 5.47 µM)

test system: P388; assay: Cytotoxicity against mouse P388 cells; assay type: functional, cell-based; conditions: not given

Row | SMILES | Activity [µg/mL]
32 | CC(C)[C@@H](C)C1CC1[C@@H](C)[C@H]1CC[C@@H]2[C@]1(C)CC[C@H]1[C@]23C=C[C@]2(C[C@@H](O)CC[C@]12C)OO3 (some centres undefined) | 0.4

same assay, conditions: Mus musculus, P388

Row | SMILES | IC50 [µg/mL]
33 | C=C(CCC[C@@]1(C)CC[C@H]([C@H](C)C(=O)OC)OO1)CCC1(O)C(=C)CCCC1(C)C (some centres undefined) [TASNEMOXIDE C] | > 1
34 | C=C(CCC1=C(C)CCCC1(C)C)C(O)CC[C@@]1(C)CC[C@H]([C@H](C)C(=O)O)OO1 (some centres undefined) [TASNEMOXIDE B] | > 1
35 | C=C(CCCC(C)(C)O)C(=O)CC[C@@]1(C)CC[C@@H]([C@H](C)C(=O)OC)OO1 [AIKUPIKOXIDE D] | > 1
36 | CC1=C(CCC(C)(O)/C=C/C[C@@]2(C)CC[C@H]([C@H](C)C(=O)O)OO2)C(C)(C)CCC1 (some centres undefined) [TASNEMOXIDE A] | > 1
37 | CC(=O)CCCC(C)(C)C(=O)CC/C(C)=C/CC[C@@]1(C)CC[C@H]([C@H](C)C(=O)O)OO1 [AIKUPIKOXIDE A] | > 1
38 | C=C1CCCC(C)(C)C1(O)CC[C@@]1(C)CC[C@@H]([C@H](C)C(=O)OC)OO1 (some centres undefined) [AIKUPIKOXIDE B] | > 1
39 | C=CCCC/C=C/C=C\CCCCCCCC[C@@H]1CC[C@@H]([C@@H]2CC[C@@H](CC(=O)[O-])OO2)O1.[Na+] | 0.01
40 | COC(=O)[C@@H](C)[C@@H]1CC[C@](C)(CCC(=O)C(C)(C)CCCC(C)=O)OO1 [DIACARPEROXIDE B] | > 1

same assay, conditions: Mus musculus, P388; read-out: ED50 (the source's name)

Row | SMILES | EC50 [µg/mL]
41 | C=C(C)C(CC[C@@H](C)[C@H]1CC[C@H]2[C@@H]3CC=C4C[C@@H](O)CC[C@]4(C)[C@H]3CC[C@]12C)OO (some centres undefined) | 0.26 (≈ 0.624 µM)
42 | C[C@H](C/C=C/C(C)(C)OO)[C@H]1CC[C@H]2[C@@H]3CC=C4C[C@@H](O)CC[C@]4(C)[C@H]3CC[C@]12C | 0.22 (≈ 0.528 µM)
43 | C[C@H](C/C=C/C(C)(C)OO)[C@H]1CC[C@H]2[C@@H]3C[C@@H](O)C4=CC(=O)CC[C@]4(C)[C@H]3CC[C@]12C | 0.28 (≈ 0.65 µM)
44 | C=CC(CC[C@@H](C)[C@H]1CC[C@H]2[C@@H]3CC(=O)C4=CC(=O)CC[C@]4(C)[C@H]3CC[C@]12C)(OO)C(C)C (some centres undefined) | 0.8 (≈ 1.75 µM)

test system: KB; assay: Cytotoxicity against human KB cells; assay type: functional, cell-based; conditions: not given

Row | SMILES | Activity [µg/mL]
45 | CC(C)[C@@H](C)C1CC1[C@@H](C)[C@H]1CC[C@@H]2[C@]1(C)CC[C@H]1[C@]23C=C[C@]2(C[C@@H](O)CC[C@]12C)OO3 (some centres undefined) | 2.1

same assay, conditions: Homo sapiens, KB; read-out: ED50 (the source's name)

Row | SMILES | EC50 [µg/mL]
46 | C=C(C)C(CC[C@@H](C)[C@H]1CC[C@H]2[C@@H]3CC=C4C[C@@H](O)CC[C@]4(C)[C@H]3CC[C@]12C)OO (some centres undefined) | 0.33 (≈ 0.792 µM)
47 | C[C@H](C/C=C/C(C)(C)OO)[C@H]1CC[C@H]2[C@@H]3CC=C4C[C@@H](O)CC[C@]4(C)[C@H]3CC[C@]12C | 1.41 (≈ 3.38 µM)
48 | C[C@H](C/C=C/C(C)(C)OO)[C@H]1CC[C@H]2[C@@H]3C[C@@H](O)C4=CC(=O)CC[C@]4(C)[C@H]3CC[C@]12C | 0.4 (≈ 0.929 µM)
49 | C=CC(CC[C@@H](C)[C@H]1CC[C@H]2[C@@H]3CC(=O)C4=CC(=O)CC[C@]4(C)[C@H]3CC[C@]12C)(OO)C(C)C (some centres undefined) | 4 (≈ 8.76 µM)

test system: DU-145; assay: Cytotoxicity against human DU145 cells; assay type: functional, cell-based; conditions: Homo sapiens, DU-145

Row | SMILES | IC50 [µg/mL]
50 | C=CCCC/C=C/C=C\CCCCCCCC[C@@H]1CC[C@@H]([C@@H]2CC[C@@H](CC(=O)[O-])OO2)O1.[Na+] | 0.1
